Measured values as given in patent publication US9765043B2, “Salts of potassium ATP channel openers and uses thereof” (Essentialis, Inc., priority 2012, dated 2017).
“Also recorded” adds a separate entry of the source. Like-named read-outs stand apart in the source and are kept apart here.

Legend:
[1] = Form conversion and degradation under thermal stress
Description: Studies were also conducted to evaluate the likelihood for conversion and degradation under thermal stress.

[2] = Slurry studies of solid form inter-conversion; format: physicochemical; conditions: for propensity of inter-conversion of the solid form in slurry: room temperature, absence of light, up to 14 days, solvents per substance (water, IPA, CH2Cl2, toluene, n-heptane, EtOAc, MeCN, THF, t-AmOH); for Slurries: diazoxide potassium salt, room-temperature slurry
healthy volunteers [3] = tested on: healthy volunteers
Description: (§1) A randomized double-blind, placebo-controlled clinical trial was conducted in 24 healthy volunteers. They were randomized in a 2:1 ratio of treated to placebo. […] The dose was administered once per day in the morning for a period of 7 days. A number of lipid parameters were measured at baseline and again on day 7 including fasting triglycerides, total cholesterol, LDL cholesterol, HDL cholesterol, and non-HDL cholesterol. Additionally, blood pressure was measured on a daily basis.

healthy volunteers [4] = tested on: healthy volunteers; remark: listed apart in the source
Description: as §1
In PK008, the dose was administered as one and one ½ tablet formulation K′.

[5] = tested on: hypertriglyceridemic patients; experiment: Clinical study in 12 hypertriglyceridemic patients (formulation U / K′ crossover): lipids; format: in vivo, human; conditions: 435 mg/day diazoxide choline once per day, 15 days
Description: A clinical study was conducted in 12 hypertriglyceridemic patients. […] Treatment continued for 16 days. The endpoint of the study was percentage change from baseline to day 15 of triglycerides, total cholesterol, LDL cholesterol, HDL cholesterol and non-HDL cholesterol. Lipid parameters were measured at baseline and on days 7 and 15. Blood pressure was collected at multiple time points.

[6] = Excipient compatibility study for diazoxide choline salt; format: physicochemical
[7] = Moisture sorption analysis; format: physicochemical; conditions: 25° C.
Description: Moisture Sorption Analysis was performed with a Hiden IGAsorp Moisture Sorption Instrument. […] The samples were allowed to equilibrate to an asymptotic weight at each point for a maximum of 4 hours. […] The resulting samples after desorption were dried at 80° C. for two hours and analyzed by XRPD.

[8] = tested on: Zucker Diabetic Fatty (ZDF) rats; conditions: 150 mg/kg/day, 8 weeks; cited from earlier work
Zucker rats = conditions: oral 1-10 mg/kg/day for 14 days; cited from earlier work
[9] = Study EC004, 435 mg, 7 days, Baseline
[10] = Study EC004, 435 mg, 7 days, End of treatment
[11] = Study TR002, 508 mg, 49 days, Baseline
[12] = Study TR002, 508 mg, 49 days, End of treatment
[13] = 60° C., closed environment, protected from light, 7 and 14 days, XRPD, DSC, HPLC

CC1=Nc2ccc(Cl)cc2S(=O)(=O)[N-]1.C[N+](C)(C)CCO [Choline diazoxide salt]
conversion and degradation under thermal stress [1]: did not show any significant degradation | propensity of inter-conversion of the solid form in slurry ([2]; listed as choline salt): no propensity of inter-conversion | HDL cholesterol, mean ± SEM (healthy volunteers [3]; 300 mg diazoxide/day, Baseline): 49 ± 3.3 mg/dL | LDL cholesterol, mean ± SEM (healthy volunteers [3]; 300 mg diazoxide/day, Baseline): 111 ± 5.8 mg/dL | Total cholesterol, mean ± SEM (healthy volunteers [3]; 300 mg diazoxide/day, Baseline): 175 ± 7.5 mg/dL | Triglycerides, mean ± SEM (healthy volunteers [3]; 300 mg diazoxide/day, Baseline): 76 ± 7.8 mg/dL | non-HDL cholesterol, mean ± SEM (healthy volunteers [3]; 300 mg diazoxide/day, Baseline): 126 ± 6.6 mg/dL | HDL cholesterol, Percent change from baseline (healthy volunteers [3]; 300 mg diazoxide/day, Day 7): 8.2% | HDL cholesterol, mean ± SEM (healthy volunteers [3]; 300 mg diazoxide/day, Day 7): 53 ± 2.9 mg/dL | LDL cholesterol, Percent change from baseline (healthy volunteers [3]; 300 mg diazoxide/day, Day 7): −5.4% | LDL cholesterol, mean ± SEM (healthy volunteers [3]; 300 mg diazoxide/day, Day 7): 105 ± 4.9 mg/dL | Total cholesterol, Percent change from baseline (healthy volunteers [3]; 300 mg diazoxide/day, Day 7): −2.3% | Total cholesterol, mean ± SEM (healthy volunteers [3]; 300 mg diazoxide/day, Day 7): 171 ± 6.4 mg/dL | Triglycerides, Percent change from baseline (healthy volunteers [3]; 300 mg diazoxide/day, Day 7): −13.2% | Triglycerides, mean ± SEM (healthy volunteers [3]; 300 mg diazoxide/day, Day 7): 66 ± 3.9 mg/dL | non-HDL cholesterol, Percent change from baseline (healthy volunteers [3]; 300 mg diazoxide/day, Day 7): −6.3% | non-HDL cholesterol, mean ± SEM (healthy volunteers [3]; 300 mg diazoxide/day, Day 7): 118 ± 5.5 mg/dL | reduction in total cholesterol, LDL cholesterol and non-HDL cholesterol vs placebo arm (healthy volunteers [3]; baseline to day 7, 300 mg/day diazoxide as formulation U): greater for each lipid parameter than the corresponding reduction in the placebo arm | Diastolic blood pressure (healthy volunteers [4]; [9]): 69.4 mmHg | Systolic blood pressure (healthy volunteers [4]; [9]): 113.2 mmHg | Diastolic blood pressure (healthy volunteers [4]; [10]): 63.2 mmHg | Systolic blood pressure (healthy volunteers [4]; [10]): 113.5 mmHg | Diastolic blood pressure (healthy volunteers [4]; [11]): 77.7 mmHg | Systolic blood pressure (healthy volunteers [4]; [11]): 118.1 mmHg | Diastolic blood pressure (healthy volunteers [4]; [12]): 67.0 mmHg | Systolic blood pressure (healthy volunteers [4]; [12]): 117.0 mmHg | lipid response [5]: marked reductions in triglycerides, total cholesterol, LDL cholesterol, and nonHDL cholesterol and a marked increase in HDL cholesterol

CC1=Nc2ccc(Cl)cc2S(=O)(=O)N1 [Diazoxide Control]
1 Month 40° C./75% RH % (w/w) ([6]; one-month storage 40° C./75% RH): 99.0 % (w/w) | 1 Month 50° C. % (w/w) ([6]; one-month storage 50° C.): 99.4 % (w/w)

CC1=Nc2ccc(Cl)cc2S(=O)(=O)[N-]1.C[N+](C)(C)CCO [Diazoxide choline salt Form A]
Moisture sorption (hygroscopicity) [7]: hygroscopic solid | water absorbed at 60% RH ([7]; listed as Form A): 2.4 wt % | conversion and degradation under thermal stress [1]: Started to convert to Form | propensity of inter-conversion of the solid form in slurry ([2]; listed as Form A): conversion to Form B was observed after seven days; also recorded: readily converted to Form B in all slurry solvents utilized; also recorded: Converted to Form B after

CC1=Nc2ccc(Cl)cc2S(=O)(=O)[N-]1.C[N+](C)(C)CCO [Diazoxide choline salt Form B]
water absorbed at 60% RH ([7]; listed as Form B): 7.4 wt % | conversion and degradation under thermal stress [1]: Stable after 14 days at | propensity of inter-conversion of the solid form in slurry ([2]; listed as Form B): form conversion was not observed; also recorded: Stable after 14 days in

CC1=NS(=O)(=O)c2cc(Cl)ccc2[N-]1.CC1=NS(=O)(=O)c2cc(Cl)ccc2[N-]1.O.[K+].[K+] [Diazoxide potassium salt Form D]
Slurries [2]: Converted to Form D

C1COCCO1.CC1=NS(=O)(=O)c2cc(Cl)ccc2[N-]1.CC1=NS(=O)(=O)c2cc(Cl)ccc2[N-]1.[K+].[K+] [Diazoxide potassium salt Form F]
Moisture sorption (hygroscopicity) [7]: hygroscopic solid | Thermal ([1]; diazoxide potassium salt, thermal stress, 7 days): Stable (7 days) | Slurries [2]: Converted to Form D | propensity of inter-conversion of the solid form in slurry [2]: readily converted to Form D in all slurry solvents utilized; also recorded: conversion to Form D was observed in all solvents

CC1=Nc2ccc(Cl)cc2S(=O)(=O)N1 [Diazoxide, 7-chloro-3-methyl-2H-1,2,4-benzothiadiazine 1,1 dioxide, reference compound]
water absorbed at 60% RH [7]: approximately 0.04 wt % | water absorbed at 90% RH [7]: ~0.20 wt % | Moisture sorption (hygroscopicity) ([7]; listed as Free form): no hysteresis | conversion and degradation under thermal stress [1, 13]: no conversion or degradation | propensity of inter-conversion of the solid form in slurry [2]: did not convert to alternate crystal forms | hepatic lipid contents [8]: decreased hepatic triglycerides, long chain acyl-CoA and cholesterol contents

N#CNC(=NCCc1ccccc1Cl)c1cncc(N)c1 [KRN4884]
serum triglyceride levels (Zucker rats): dose dependently reduce serum triglyceride levels

CC1=NS(=O)(=O)c2cc(Cl)ccc2[N-]1.[K+] [Potassium diazoxide salt]
water absorbed at 60% RH [7]: 5.4 wt % | water absorbed at 90% RH [7]: 38.3 wt % | conversion and degradation under thermal stress [1, 13]: did not show any significant degradation | propensity of inter-conversion of the solid form in slurry [2]: no propensity of inter-conversion

CC1=NS(=O)(=O)c2cc(Cl)ccc2[N-]1.[Na+] [Sodium diazoxide salt]
water absorbed at 60% RH [7]: 1.2 wt % | water absorbed at 80% RH ([7]; 80% RH): 6.6 wt % | conversion and degradation under thermal stress [1, 13]: little propensity to change form or degrade | propensity of inter-conversion of the solid form in slurry [2]: no propensity of inter-conversion
